From PubChem BioAssay (NCI)
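Interpolation was linear, between the two tested concentrations surrounding the appropriate level; five concentrations were tested over 48 hours in 96-well plates. Abbreviation: GI50, concentration required for 50% inhibition of growth. TGI denotes the concentration required for complete inhibition of growth.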

Tests used:
Assay in all cases: DTP human tumour cell line panel, 48 h
SNB-75 CNS = test system: SNB-75 CNS
BT-549 breast = test system: BT-549 breast
DU-145 prostate = test system: DU-145 prostate
SF-539 CNS = test system: SF-539 CNS
UO-31 renal = test system: UO-31 renal
SW-620 colon = test system: SW-620 colon
A498 renal = test system: A498 renal
KM12 colon = test system: KM12 colon

| SMILES | GI50 (SNB-75 CNS) [µM] | TGI (SNB-75 CNS) [µM] | GI50 (BT-549 breast) [µM] | TGI (BT-549 breast) [µM] | GI50 (DU-145 prostate) [µM] | TGI (DU-145 prostate) [µM] | GI50 (SF-539 CNS) [µM] | TGI (SF-539 CNS) [µM] | GI50 (UO-31 renal) [µM] | TGI (UO-31 renal) [µM] | GI50 (SW-620 colon) [µM] | TGI (SW-620 colon) [µM] | GI50 (A498 renal) [µM] | TGI (A498 renal) [µM] | GI50 (KM12 colon) [µM] | TGI (KM12 colon) [µM] |
| --- | --- | --- | --- | --- | --- | --- | --- | --- | --- | --- | --- | --- | --- | --- | --- | --- |
| O=C(Nc1ccncc1)C(=O)c1cn(S(=O)(=O)c2cccc(F)c2)c2ccccc12 | 2.62 | 17.8 | 2.29 | 86.8 | 6.2 | > 100 | 4.41 | > 100 | 6.15 | > 100 | 3.02 | > 100 | 13.4 | 97 | 3.04 | > 100 |
| C#CCNC(=O)c1cccc2c1cc(C)n2-c1nc2c(c(NCc3ccccc3)n1)CCCC2 | 0.0365 | 0.0872 | 0.0265 | 0.0643 | 0.0298 | 0.108 | 0.0245 | 0.07 | 0.0242 | 0.0678 | 0.0289 | 0.142 | 0.0218 | 0.0591 | 0.0231 | 0.065 |
| C=C(C[C@](O)(C(=O)/C=C/c1ccc(Cl)cc1)C(=O)OC)c1ccccc1 | 8.43 | 21.8 | 2.86 | 10.7 | 3.03 | 10.7 | 2.12 | 4.93 | 1.56 | 3.2 | 2.05 | 5.04 | 11.6 | 23.8 | 1.81 | 4.24 |
| O=C(O)CCNC1CCCCC1 | > 100 | > 100 | > 100 | > 100 | > 100 | > 100 | > 100 | > 100 | > 100 | > 100 | > 100 | > 100 | > 100 | > 100 | > 100 | > 100 |
| CC/C=C\C[C@H](F)C/C=C1/C(=O)C=C[C@@H]1C/C=C\CCCC(=O)O | 12.5 | > 32.5 | 6.07 | 12.5 | 8.02 | 32.4 | 7.21 | 17 | 5.78 | 12.4 | 5.64 | 21.3 | 5.59 | 11 | 4.65 | 13.3 |
| CS(=O)(=O)c1ccc(-n2nc(C(F)(F)F)cc2OC2CCCC2)cc1 | > 100 | > 100 | 28.5 | 73 | 38.9 | > 100 | 39.8 | > 100 | > 100 | > 100 | 71.2 | > 100 | 25.2 | 56.2 | 38.5 | > 100 |
| COc1ccc2c(c1)CCCN2c1c2ccccc2nc2ccccc12 | 0.2 | 0.821 | 0.49 | 6.28 | 0.38 | > 100 | 0.251 | 0.741 | 0.69 | > 100 | 0.403 | > 100 | 0.269 | 0.808 | 0.386 | 15.6 |
| Cc1cc2c(cc1Cl)SC1=NN(C)S(=O)N1S2(=O)=O (stereo not given) | 58.7 | > 100 | > 100 | > 100 | > 100 | > 100 | > 100 | > 100 | 65.9 | > 100 | > 100 | > 100 | 99.5 | > 100 | > 100 | > 100 |
| CCN(CC)CCCC(C)Nc1c2ccc(Cl)cc2nc2ccc(O)cc12 (stereo not given) | 1.62 | 3.86 | 5.38 | 18.3 | 2.26 | 8.39 | 1.63 | 3.14 | 1.18 | 2.65 | 1.16 | 4.13 | 0.457 | 18.2 | 2.39 | 10.5 |
| COc1cc2ncn(-c3cc(OCc4cccs4)c(C(N)=O)s3)c2cc1OC | 5.72 | > 22.4 | 4.67 | > 25 | 0.935 | > 8.22 | 1.23 | > 16.8 | 2.77 | > 25 | 1.04 | > 20.3 | 1.25 | 16.9 | 0.772 | > 17.5 |
| C[N+]1=C(/C=C/c2ccc(O)c3ncccc23)C(C)(C)c2ccccc21 | 2.26 | 7.78 | 2.64 | 10.3 | 2.98 | 12.1 | 2.55 | 10.3 | 0.58 | 5.73 | 2.85 | 11.1 | 1.97 | 11 | 2.97 | 10.5 |
| O=C(CCc1nnc2sc(-c3ccc(Cl)cc3Cl)nn12)c1nc2ccccc2[nH]1 | 1.48 | 3.53 | 2.14 | 4.99 | 1.15 | 2.38 | 1.98 | 4.63 | 0.838 | 2.24 | 0.229 | 0.744 | 0.845 | 2.26 | 1.25 | 2.86 |
| Nc1nccc(-c2c(-c3ccc(F)cc3)ncn2C2CCC(O)CC2)n1 (stereo not given) | 6.61 | > 21 | 11.7 | > 25 | 11.2 | > 25 | > 23.2 | > 25 | 1.79 | > 23.2 | 13.6 | > 25 | 3.29 | > 25 | 7.82 | > 25 |
| COc1ccc(-c2onc(N)c2-c2cc(OC)c3c(c2)OCO3)cc1 | 1.75 | 7.32 | 2.64 | > 100 | 3.57 | > 59.3 | 2.74 | 11.8 | 10.5 | > 100 | 0.598 | > 100 | 1.5 | 10.9 | 1.85 | > 75.4 |
| O=C1CCC(N2C(=O)c3ccccc3C2=O)C(=O)N1CO (stereo not given) | > 100 | > 100 | 52.6 | > 100 | 25 | 79.6 | 30.8 | 93.6 | > 100 | > 100 | 32.4 | > 100 | > 100 | > 100 | > 100 | > 100 |
